In US9051325B2, “Bicyclic [5,6] imidazo pyrimodone compounds for use in the treatment of diseases or conditions mediated by Lp-PLA2” (GlaxoSmithKline Intellectual Property Development Limited, priority 2013, dated 2015):
Read-outs that look alike come from different tables or passages of the source.

How the values were obtained:
[1] = molecular target: T1, Lp-PLA2 in human plasma (Homo sapiens, UniProt Q13093); assay: Lp-PLA2 human plasma assay (Thio-PAF assay); format: biochemical; settings: pooled human plasma; lower bounds; read-out: pIC50 values in the thio-PAF assay (converted)
T1 construct: from tissue; host or cells: pooled human plasma
T1 sequence (Q13093 22-441): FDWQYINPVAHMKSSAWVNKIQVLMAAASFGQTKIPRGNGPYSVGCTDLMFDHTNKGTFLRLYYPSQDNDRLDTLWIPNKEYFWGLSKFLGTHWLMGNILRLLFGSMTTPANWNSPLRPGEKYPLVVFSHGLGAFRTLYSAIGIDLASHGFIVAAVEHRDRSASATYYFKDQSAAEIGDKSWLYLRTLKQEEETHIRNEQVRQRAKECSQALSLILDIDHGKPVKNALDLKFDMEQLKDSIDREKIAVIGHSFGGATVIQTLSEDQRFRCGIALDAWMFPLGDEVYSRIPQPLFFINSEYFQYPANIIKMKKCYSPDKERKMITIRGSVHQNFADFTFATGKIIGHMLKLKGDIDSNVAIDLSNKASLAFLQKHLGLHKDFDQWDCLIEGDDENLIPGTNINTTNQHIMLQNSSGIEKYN
In short: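 Pooled human plasma preincubated 30 min with compounds, then given 2-thio-PAF substrate with CPM and NEM in 50 mM HEPES pH 7.4, 150 mM NaCl, 1 mM CHAPS. Reaction quenched after 2 min with TFA and read by fluorescence (ex 380/em 485) after 40 min at room temperature; pIC50 from curve fit.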

[2] = molecular target: T2, recombinant human Lp-PLA2 (Homo sapiens, UniProt Q13093); assay: Recombinant human Lp-PLA2 assay (rhLp-PLA2, PED6 assay); format: biochemical
T2 sequence (Q13093 22-441): T1 sequence (Q13093 22-441)
In short: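 Compounds were preincubated 30 min with 4 nM […] rhLp-PLA2 in 50 mM HEPES pH 7.4, 150 mM NaCl, 1 mM CHAPS, then PED6 substrate […] was added for 20 min at room temperature in the dark. Fluorescence was read at ex 480/em 540, and pIC50 was fitted from 1:3 serial dilutions.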

[3] = lower bounds, read-out: pIC50 values in the PED6 assay (converted)
[4] = read-out: rhLp-PLA2 (PED6 assay) (pIC50) (converted)

SMILES	IC50 [1] [nM]	IC50 [2, 3] [nM]	IC50 [2, 4] [nM]
C[C@H]1Cn2c(cc(OCc3ccc(F)c(C#N)c3)nc2=O)N1 [Example E74, (S)-2-fluoro-5-(((2-methyl-5-oxo-1,2,3,5-tetrahydroimidazo[1,2-c]pyrimidin-7-yl)oxy)methyl)benzonitrile]	≤ 100	≤ 10	
C[C@H]1Cn2c(cc(OCc3ccc(F)c(C#N)c3)nc2=O)N1C [Example E75, (S)-5-(((1,2-dimethyl-5-oxo-1,2,3,5-tetrahydroimidazo[1,2-c]pyrimidin-7-yl)oxy)methyl)-2-fluorobenzonitrile]	≤ 100	≤ 10	
CN1c2cc(OCc3ccc(F)cc3F)nc(=O)n2CC1(C)C [Example E77, 7-((2,4-difluorobenzyl)oxy)-1,2,2-trimethyl-2,3-dihydroimidazo[1,2-c]pyrimidin-5(1H)-one]	≤ 100	≤ 10	
C[C@H]1Cn2c(cc(OCc3ccc(Oc4ccnc(C(F)(F)F)c4)c(F)c3)nc2=O)N1 [Example E78, (S)-7-((3-fluoro-4-((2-(trifluoromethyl)pyridin-4-yl)oxy)benzyl)oxy)-2-methyl-2,3-dihydroimidazo[1,2-c]pyrimidin-5(1H)-one]	≤ 100	≤ 1	
CC1(C)Cn2c(cc(OCc3ccc(Oc4ccnc(Cl)c4)c(F)c3)nc2=O)N1 [Example E82, 7-((4-((2-chloropyridin-4-yl)oxy)-3-fluorobenzyl)oxy)-2,2-dimethyl-2,3-dihydroimidazo[1,2-c]pyrimidin-5(1H)-one]	≤ 100	≤ 1	
C[C@H]1Cn2c(cc(OCc3ccc(Oc4ccc(F)c(F)c4)c(C#N)c3)nc2=O)N1C [Example E88, (S)-2-(3,4-difluorophenoxy)-5-(((1,2-dimethyl-5-oxo-1,2,3,5-tetrahydroimidazo[1,2-c]pyrimidin-7-yl)oxy)methyl)benzonitrile]	≤ 100	≤ 1	
C[C@H]1Cn2c(cc(OCc3ccc(Oc4ccc(Cl)c(C#N)c4)c(F)c3)nc2=O)N1C [Example E89, (S)-2-chloro-5-(4-(((1,2-dimethyl-5-oxo-1,2,3,5-tetrahydroimidazo[1,2-c]pyrimidin-7-yl)oxy)methyl)-2-fluorophenoxy)benzonitrile]	≤ 100	≤ 1	
CC1(C)Cn2c(cc(OCc3ccc(Oc4cncc(Cl)c4)c(F)c3)nc2=O)N1 [Example E90, 7-((4-((5-chloropyridin-3-yl)oxy)-3-fluorobenzyl)oxy)-2,2-dimethyl-2,3-dihydroimidazo[1,2-c]pyrimidin-5(1H)-one]	≤ 100	≤ 1	
CC1(C)Cn2c(cc(OCc3cc(F)c(Oc4cncc(C(F)(F)F)c4)c(F)c3)nc2=O)N1 [Example E91, 7-((3,5-difluoro-4-((5-(trifluoromethyl)pyridin-3-yl)oxy)benzyl)oxy)-2,2-dimethyl-2,3-dihydroimidazo[1,2-c]pyrimidin-5(1H)-one]	≤ 100	≤ 1	
[2H]C([2H])(Oc1cc2n(c(=O)n1)CC(C)(C)N2C)c1cc(F)cc(F)c1 [Example E93, 7-(dideutero(3,5-difluorobenzyl)oxy)-1,2,2-trimethyl-2,3-dihydroimidazo[1,2-c]pyrimidin-5(1H)-one]	≤ 100	≤ 10	
CN1c2cc(OCc3cc(F)c(Oc4cnc(C(F)(F)F)nc4)c(F)c3)nc(=O)n2CC1(C)C [Example E95, 7-((3,5-difluoro-4-((2-(trifluoromethyl)pyrimidin-5-yl)oxy)benzyl)oxy)-1,2,2-trimet-hyl-2,3-dihydroimidazo[1,2-c]pyrimidin-5(1H)-one]	≤ 100	≤ 1	0.0794
CC(C)N1c2cc(OCc3cc(F)cc(F)c3)nc(=O)n2CC1(C)C [Example E96, 7-((3,5-difluorobenzyl)oxy)-1-isopropyl-2,2-dimethyl-2,3-dihydroimidazo[1,2-c]pyrimidin-5(1H)-one]	≤ 100	≤ 1	0.316
[2H]C([2H])(Oc1cc2n(c(=O)n1)CC(C)(C)N2C(C)C)c1cc(F)cc(F)c1 [Example E97, 7-(dideutero(3,5-difluorobenzyl)oxy)-1-isopropyl-2,2-dimethyl-2,3-dihydroimidazo[1,2-c]pyrimidin-5(1H)-one]	≤ 100	≤ 1	0.631
CN1c2cc(OCc3ccc(Oc4ccc(F)nc4)c(F)c3)nc(=O)n2CC1(C)C [Example E98, 7-((3-fluoro-4-((6-fluoropyridin-3-yl)oxy)benzyl)oxy)-1,2,2-trimethyl-2,3-dihydroimidazo[1,2-c]pyrimidin-5(1H)-one]	≤ 100	≤ 1	
CC1(C)Cn2c(cc(OCc3cc(F)c(Oc4cnc(C(F)(F)F)nc4)c(F)c3)nc2=O)N1 [Example E100, 7-((3,5-difluoro-4-((2-(trifluoromethyl)pyrimidin-5-yl)oxy)benzyl)oxy)-2,2-dimethyl-2,3-dihydroimidazo[1,2-c]pyrimidin-5(1H)-one]	≤ 100	≤ 1	
CC1(C)Cn2c(cc(OCc3ccc(Oc4cnc(C(F)(F)F)nc4)c(F)c3)nc2=O)N1 [Example E101, 7-((3-fluoro-4-((2-(trifluoromethyl)pyrimidin-5-yl)oxy)benzyl)oxy)-2,2-dimethyl-2,3-dihydroimidazo[1,2-c]pyrimidin-5(1H)-one]	≤ 100	≤ 1	
[2H]C([2H])(Oc1cc2n(c(=O)n1)CC(C)(C)N2CC)c1cccc(F)c1F [Example E102, 7-(dideutero(2,3-difluorobenzyl)oxy)-1-ethyl-2,2-dimethyl-2,3-dihydroimidazo[1,2-c]pyrimidin-5(1H)-one]	≤ 100	≤ 10	
CN1c2cc(OCc3cccc(F)c3F)nc(=O)n2CC1(C)C [Example E103, 7-((2,3-difluorobenzyl)oxy)-1,2,2-trimethyl-2,3-dihydroimidazo[1,2-c]pyrimidin-5(1H)-one]	≤ 100	≤ 10	
[2H]C([2H])([2H])N1c2cc(OCc3cccc(F)c3F)nc(=O)n2CC1(C)C [Example E104, 7-((2,3-difluorobenzyl)oxy)-1-trideuteromethyl-2,2-dimethyl-2,3-dihydroimidazo[1,2-c]pyrimidin-5(1H)-one]	≤ 100	≤ 10	
[2H]C([2H])(Oc1cc2n(c(=O)n1)CC(C)(C)N2C(C)C)c1cccc(F)c1F [Example E105, 7-(dideutero(2,3-difluorobenzyl)oxy)-1-isopropyl-2,2-dimethyl-2,3-dihydroimidazo-[1,2-c]pyrimidin-5(1H)-one]	≤ 100	≤ 1	0.631
C[C@@H]1Cn2c(cc(OCc3ccc(F)c(F)c3)nc2=O)N1C [Example E106, (R)-7-((3,4-difluorobenzyl)oxy)-1,2-dimethyl-2,3-dihydroimidazo[1,2-c]pyrimidin-5(1H)-one]	≤ 100	≤ 10	
C[C@@H]1Cn2c(cc(OCc3ccc(Oc4ccc(C(F)(F)F)nc4)c(F)c3)nc2=O)N1C [Example E107, (R)-7-((3-fluoro-4-((6-(trifluoromethyl)pyridin-3-yl)oxy)benzyl)oxy)-1,2-dimethyl-2,3-dihydroimidazo[1,2-c]pyrimidin-5(1H)-one]	≤ 100	≤ 1	
C[C@H]1Cn2c(cc(OCc3cc(F)c(F)c(F)c3)nc2=O)N1C [Example E108, (S)-1,2-dimethyl-7-((3,4,5-trifluorobenzyl)oxy)-2,3-dihydroimidazo[1,2-c]pyrimidin-5(1H)-one]	≤ 100	≤ 10	
